Results as given in ChEMBL document CHEMBL1201862, “PubChem BioAssay data set” (2004).
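Exposure lasted 48 hours, with cells grown in 96-well plates and compounds tested at five concentrations. GI50 = concentration required for 50% inhibition of growth.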 The source made the active and inactive calls. No stated cut-off is given here; in the data, active = GI50 up to about 1.1 µM and inactive = higher.

Key:
Assay in all cases: inhibition of tumour cell growth, NCI panel, 48 h
CAKI-1 = test system: CAKI-1
RPMI-8226 = test system: RPMI-8226
OVCAR-4 = test system: OVCAR-4
M14 = test system: M14
UACC-257 = test system: UACC-257
HL-60 = test system: HL-60
SF-295 = test system: SF-295
786-0 = test system: 786-0
DMS-273 = test system: DMS-273
CCRF-CEM = test system: CCRF-CEM
OVCAR-8 = test system: OVCAR-8
TK-10 = test system: TK-10
OVCAR-5 = test system: OVCAR-5
NCI-H460 = test system: NCI-H460
LOX IMVI = test system: LOX IMVI
ACHN = test system: ACHN
NCI-H522 = test system: NCI-H522
IGROV-1 = test system: IGROV-1

Measured: GI50

COc1cc2cnc3c4cc(OC)c(OC(C)C)cc4ccc3c2cc1OC
inactive: CAKI-1 > 100 µM | RPMI-8226 > 100 µM | OVCAR-4 > 100 µM | M14 > 100 µM | UACC-257 > 100 µM | HL-60 > 100 µM | SF-295 > 100 µM | 786-0 > 100 µM | DMS-273 > 100 µM | CCRF-CEM > 100 µM | OVCAR-8 > 100 µM | TK-10 > 100 µM | OVCAR-5 > 100 µM | NCI-H460 > 100 µM | LOX IMVI > 100 µM | ACHN > 100 µM | NCI-H522 > 100 µM | IGROV-1 > 100 µM

CN(C)CCC1(C2=CCCC2)CC/C(=C\c2ccc(Cl)cc2)C1=O (stereo unspecified)
inactive: CAKI-1 7.03 µM | RPMI-8226 5.73 µM | OVCAR-4 9.46 µM | M14 2.01 µM | UACC-257 2.92 µM | HL-60 1.6 µM | SF-295 7.82 µM | 786-0 4.04 µM | DMS-273 10.8 µM | CCRF-CEM 2.38 µM | OVCAR-8 12.3 µM | TK-10 11.1 µM | OVCAR-5 12.9 µM | NCI-H460 10.9 µM | LOX IMVI 10.1 µM | ACHN 11.5 µM | NCI-H522 6.68 µM | IGROV-1 7.14 µM
